For series [1], the target named is T1, Tyrosine-protein kinase SYK (Homo sapiens, UniProt P43405). Briefly: Inhibition of N-terminal 6His-tagged full length human recombinant SYK expressed in baculovirus using Biotin-AAAEEIYGEI as substrate after 60 mins by TR-FRET assay.
Another series has as its target Aurora kinase B (Homo sapiens, UniProt Q96GD4). Briefly: Inhibition of N-terminal-6His-tagged full length human Aurora B expressed in baculovirus using 5FAM-PKA-tide as substrate after 120 mins by fluorescence polarization assay.
Series [2] deals with T1, Tyrosine-protein kinase SYK. In words: Inhibition of SYK in human B cells assessed as suppression of anti-IgM-induced CD69 surface expression preincubated for 30 mins followed by anti-IgM addition measured after 3.5 hrs by flow cytometric analysis. The series is classed as cell-based.
In series [3] the target is Voltage-gated inwardly rectifying potassium channel KCNH2 (Homo sapiens, UniProt Q12809). Briefly: Inhibition of human ERG expressed in CHOK1 cell membranes after 2 hrs by cy3b-dofetilide-based fluorescence polarization assay.
Voltage-gated inwardly rectifying potassium channel KCNH2, sequence (Q12809 whole entry): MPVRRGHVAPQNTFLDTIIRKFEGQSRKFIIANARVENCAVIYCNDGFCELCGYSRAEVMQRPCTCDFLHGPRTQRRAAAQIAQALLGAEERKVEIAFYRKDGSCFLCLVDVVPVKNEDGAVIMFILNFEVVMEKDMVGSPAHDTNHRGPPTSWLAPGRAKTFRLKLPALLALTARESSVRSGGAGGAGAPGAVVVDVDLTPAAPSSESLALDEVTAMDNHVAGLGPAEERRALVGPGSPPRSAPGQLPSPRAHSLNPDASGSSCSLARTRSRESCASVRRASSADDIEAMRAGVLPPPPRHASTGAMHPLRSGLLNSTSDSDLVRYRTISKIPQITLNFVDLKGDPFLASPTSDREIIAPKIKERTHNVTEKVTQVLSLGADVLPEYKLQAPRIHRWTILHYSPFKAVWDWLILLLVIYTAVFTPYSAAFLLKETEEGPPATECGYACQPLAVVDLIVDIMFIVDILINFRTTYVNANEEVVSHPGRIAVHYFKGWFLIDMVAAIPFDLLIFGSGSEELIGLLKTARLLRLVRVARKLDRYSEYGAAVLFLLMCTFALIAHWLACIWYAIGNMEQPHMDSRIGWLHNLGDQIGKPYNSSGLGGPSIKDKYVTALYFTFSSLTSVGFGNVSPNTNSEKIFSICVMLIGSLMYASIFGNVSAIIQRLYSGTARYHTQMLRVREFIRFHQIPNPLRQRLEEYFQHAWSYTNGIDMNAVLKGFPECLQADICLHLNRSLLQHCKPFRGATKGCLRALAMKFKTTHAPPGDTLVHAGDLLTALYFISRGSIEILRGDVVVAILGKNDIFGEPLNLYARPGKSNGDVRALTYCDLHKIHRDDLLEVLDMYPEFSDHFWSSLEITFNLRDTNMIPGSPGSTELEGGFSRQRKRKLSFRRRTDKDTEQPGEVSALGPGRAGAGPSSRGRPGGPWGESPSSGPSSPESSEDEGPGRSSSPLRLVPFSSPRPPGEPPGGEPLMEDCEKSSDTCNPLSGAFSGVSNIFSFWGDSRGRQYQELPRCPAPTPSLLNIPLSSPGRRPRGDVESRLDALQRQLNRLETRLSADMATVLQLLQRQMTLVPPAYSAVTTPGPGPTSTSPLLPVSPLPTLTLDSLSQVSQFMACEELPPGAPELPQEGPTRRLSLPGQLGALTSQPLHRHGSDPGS
In a further series the target is albumin (Homo sapiens, UniProt P02768). Briefly: Binding affinity to human serum albumin by HPLC analysis. The conditions noted are these: read-out: PB (converted). The series is classed as ADME.
albumin, sequence (P02768 whole entry): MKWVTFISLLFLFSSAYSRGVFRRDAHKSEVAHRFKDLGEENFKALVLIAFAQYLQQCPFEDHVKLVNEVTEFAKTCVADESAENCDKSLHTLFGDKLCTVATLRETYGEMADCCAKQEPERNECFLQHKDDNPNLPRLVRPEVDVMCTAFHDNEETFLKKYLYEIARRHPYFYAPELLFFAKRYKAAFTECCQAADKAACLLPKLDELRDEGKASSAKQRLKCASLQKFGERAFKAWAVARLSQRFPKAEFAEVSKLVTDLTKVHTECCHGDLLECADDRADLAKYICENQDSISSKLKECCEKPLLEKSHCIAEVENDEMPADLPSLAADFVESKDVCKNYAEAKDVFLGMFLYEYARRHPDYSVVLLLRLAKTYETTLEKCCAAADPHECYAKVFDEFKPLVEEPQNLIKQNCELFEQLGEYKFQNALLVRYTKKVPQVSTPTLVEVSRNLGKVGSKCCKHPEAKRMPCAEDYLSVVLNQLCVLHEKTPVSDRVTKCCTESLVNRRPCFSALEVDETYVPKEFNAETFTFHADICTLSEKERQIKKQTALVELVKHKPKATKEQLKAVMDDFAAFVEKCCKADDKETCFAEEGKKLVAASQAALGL
Series [4] in a line: Lipophilicity, log D of the compound by chromatographic method. It counts as physicochemical.
Series [5] can be described thus: Cmax in rat at 3 mg/kg, po. Conditions: in vivo. Also on record: dose 3 mg/kg, route oral. It counts as ADME, organism-based.
The nature of series [6]: AUC in rat at 3 mg/kg, po. The series is classed as ADME, organism-based. The conditions noted are these: in vivo.
Series [7] in a line: Dissociation constant, pKa of the compound. It counts as physicochemical.
The target in series [8] is Vascular endothelial growth factor receptor 2 (Homo sapiens, UniProt P35968). Briefly: Inhibition of KDR (unknown origin).
Vascular endothelial growth factor receptor 2, sequence (P35968 whole entry): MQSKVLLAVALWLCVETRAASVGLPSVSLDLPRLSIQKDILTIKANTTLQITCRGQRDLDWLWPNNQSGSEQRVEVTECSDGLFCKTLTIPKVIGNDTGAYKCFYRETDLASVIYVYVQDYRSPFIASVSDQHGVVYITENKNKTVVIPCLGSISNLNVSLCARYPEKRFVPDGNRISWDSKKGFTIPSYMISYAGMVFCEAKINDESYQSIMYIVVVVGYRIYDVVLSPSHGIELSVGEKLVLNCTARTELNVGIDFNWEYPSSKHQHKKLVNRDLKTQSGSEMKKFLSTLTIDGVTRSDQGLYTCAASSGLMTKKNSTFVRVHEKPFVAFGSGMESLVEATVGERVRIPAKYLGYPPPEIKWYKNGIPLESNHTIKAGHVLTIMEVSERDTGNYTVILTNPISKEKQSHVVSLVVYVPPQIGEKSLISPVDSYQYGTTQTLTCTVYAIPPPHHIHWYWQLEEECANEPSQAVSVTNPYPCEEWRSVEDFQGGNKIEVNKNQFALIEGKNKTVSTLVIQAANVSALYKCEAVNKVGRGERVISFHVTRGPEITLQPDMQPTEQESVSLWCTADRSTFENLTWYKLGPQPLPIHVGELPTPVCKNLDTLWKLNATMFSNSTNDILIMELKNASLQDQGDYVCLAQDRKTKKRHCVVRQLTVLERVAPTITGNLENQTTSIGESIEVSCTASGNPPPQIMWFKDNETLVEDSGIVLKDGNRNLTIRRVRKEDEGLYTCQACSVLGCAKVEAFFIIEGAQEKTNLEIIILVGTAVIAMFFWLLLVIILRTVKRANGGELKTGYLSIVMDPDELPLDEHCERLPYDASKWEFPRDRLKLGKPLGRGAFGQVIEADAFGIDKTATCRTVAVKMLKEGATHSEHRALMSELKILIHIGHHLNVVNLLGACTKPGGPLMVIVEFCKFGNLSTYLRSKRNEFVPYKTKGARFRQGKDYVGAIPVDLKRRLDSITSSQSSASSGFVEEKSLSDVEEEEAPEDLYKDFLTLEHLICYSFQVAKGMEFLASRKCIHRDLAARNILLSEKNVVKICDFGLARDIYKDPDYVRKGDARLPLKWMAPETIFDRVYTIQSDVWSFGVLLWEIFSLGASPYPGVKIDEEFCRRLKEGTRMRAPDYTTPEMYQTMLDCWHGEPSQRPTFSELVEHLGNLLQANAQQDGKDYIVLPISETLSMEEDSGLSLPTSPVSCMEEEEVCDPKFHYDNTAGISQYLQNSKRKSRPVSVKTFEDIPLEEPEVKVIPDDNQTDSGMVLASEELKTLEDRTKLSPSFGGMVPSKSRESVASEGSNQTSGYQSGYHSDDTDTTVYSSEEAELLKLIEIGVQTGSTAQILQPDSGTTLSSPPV
The target of series [9] is Tyrosine-protein kinase JAK1 (Homo sapiens, UniProt P23458). In words: Inhibition of JAK1 (unknown origin).
Tyrosine-protein kinase JAK1, sequence (P23458 whole entry): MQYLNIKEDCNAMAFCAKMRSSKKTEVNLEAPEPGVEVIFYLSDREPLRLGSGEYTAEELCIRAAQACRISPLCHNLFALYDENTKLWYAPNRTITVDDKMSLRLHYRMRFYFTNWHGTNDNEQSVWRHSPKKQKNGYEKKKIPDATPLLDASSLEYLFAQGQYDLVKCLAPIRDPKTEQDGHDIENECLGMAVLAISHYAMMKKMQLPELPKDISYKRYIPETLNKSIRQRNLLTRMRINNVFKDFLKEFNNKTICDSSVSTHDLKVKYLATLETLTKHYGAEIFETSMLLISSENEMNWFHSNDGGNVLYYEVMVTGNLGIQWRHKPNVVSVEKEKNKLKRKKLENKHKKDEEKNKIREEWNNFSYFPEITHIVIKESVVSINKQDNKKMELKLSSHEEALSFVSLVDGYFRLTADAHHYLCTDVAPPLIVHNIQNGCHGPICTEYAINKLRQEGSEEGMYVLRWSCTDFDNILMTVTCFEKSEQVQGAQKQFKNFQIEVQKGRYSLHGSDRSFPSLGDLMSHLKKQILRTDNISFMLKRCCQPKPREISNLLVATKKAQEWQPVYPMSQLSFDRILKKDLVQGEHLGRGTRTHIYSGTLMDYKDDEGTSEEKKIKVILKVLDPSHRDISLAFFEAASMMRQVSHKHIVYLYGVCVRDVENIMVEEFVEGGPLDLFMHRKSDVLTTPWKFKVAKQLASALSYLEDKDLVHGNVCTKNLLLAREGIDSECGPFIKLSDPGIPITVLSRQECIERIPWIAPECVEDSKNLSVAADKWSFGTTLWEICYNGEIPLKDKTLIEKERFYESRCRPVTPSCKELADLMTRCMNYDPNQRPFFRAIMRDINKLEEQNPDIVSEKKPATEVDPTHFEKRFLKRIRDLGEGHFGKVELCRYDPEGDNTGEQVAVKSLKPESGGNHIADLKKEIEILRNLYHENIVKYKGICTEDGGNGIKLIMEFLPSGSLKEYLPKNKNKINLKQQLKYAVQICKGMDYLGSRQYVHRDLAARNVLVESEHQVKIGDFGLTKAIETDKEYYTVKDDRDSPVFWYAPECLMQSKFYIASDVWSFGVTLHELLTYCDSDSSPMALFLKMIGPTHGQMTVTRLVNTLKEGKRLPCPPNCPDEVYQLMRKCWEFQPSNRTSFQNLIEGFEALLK

Aurora kinase B, sequence (Q96GD4 whole entry): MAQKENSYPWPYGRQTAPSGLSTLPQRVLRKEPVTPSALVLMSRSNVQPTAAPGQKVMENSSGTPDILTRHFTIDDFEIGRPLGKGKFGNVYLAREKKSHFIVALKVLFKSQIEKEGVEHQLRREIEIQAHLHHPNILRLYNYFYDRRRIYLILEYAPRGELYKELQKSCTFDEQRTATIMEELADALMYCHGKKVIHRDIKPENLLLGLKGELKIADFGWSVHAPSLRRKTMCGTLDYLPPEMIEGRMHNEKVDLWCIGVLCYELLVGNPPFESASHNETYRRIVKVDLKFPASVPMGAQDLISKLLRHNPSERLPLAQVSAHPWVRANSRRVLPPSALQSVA

In the case of `CN(C)c1ccc(-c2cc3nccnc3c(NCC(F)(F)F)n2)cn1`, the IC50 in series [1] is 126 nM; at Aurora kinase B, 50.1 nM; in [2], above 10000 nM; in series [3], above 50100 nM. Besides, the fraction unbound on albumin was 0.04. Moreover, the chromatographic logD in series [4] was 5.7.
For `CN(C)c1ccc(-c2cc3nccnc3c(CCC3CCCNC3)n2)cn1` (racemic), the values for the concentration for half-maximal inhibition (IC50) in [1] and in [2] were 251 nM and 1000 nM, respectively. For the same compound, the fraction unbound at albumin was 0.09. Also, the chromatographic logD in [4] was 2.4.
For `Cn1cc(-c2cc3nccnc3c(NC[C@H]3CCCNC3)n2)cn1`, the half-maximal inhibitory concentration (IC50) in series [1] is 31.6 nM; in [2], 126 nM; in series [3] it was above 50100 nM. Moreover, at albumin, the fraction unbound is 0.25.
The matching figures for `CN(C)c1ccc(-c2cc3nccnc3c(NC[C@H]3CNCCC3(F)F)n2)cn1`: 31.6 nM, 1580 nM, 20000 nM and 0.05.
Consider `Cn1cc(-c2cc3nccnc3c(NCC3CNCC(F)(F)C3)n2)cn1` (racemic), for which the half-inhibitory concentration (IC50) in series [1] is 316 nM; against Aurora kinase B, 501 nM; in series [2] it was 2000 nM; in series [3] it was above 50100 nM. The concentration in series [5] peaked (Cmax) at 96 ng/mL. The AUC in series [6] worked out at 216 ng·h/mL. In [7], this compound yielded a pKa of 6.9.
In the case of `CN1CCNC[C@H]1CNc1nc(-c2cnn(C)c2)cc2nccnc12`, the values for the IC50 in series [1], in series [2] and in series [3] were 100 nM, 200 nM and above 50100 nM, respectively.
On to `CN(C)c1ccc(-c2cc3nccnc3c(NCCC(N)=O)n2)cn1`, for which the IC50 in [1] was 158 nM; in series [2] it was 3980 nM; in series [3], above 50100 nM. Also, the fraction unbound on albumin is 0.04.
For `Cc1ccc(-c2cc3nccnc3c(NC[C@H]3CCCNC3)n2)cc1`, the results for the concentration for half-maximal inhibition (IC50) in series [1] and in series [2] were 25.1 nM and 794 nM, respectively. For the same compound, the fraction unbound on albumin is 0.09.
For the compound `Cc1ccc(-c2cc3ncncc3c(NC[C@H]3CCCNC3)n2)cc1`, the IC50 in series [1] is 200 nM; in series [2] it was 3980 nM; in series [3], 10000 nM. Besides, the fraction unbound at albumin was 0.09.
Consider `CN(C)c1ccc(-c2cc(NC[C@H]3CCCNC3)c3cccnc3c2)cn1`, for which the IC50 was 6.31 nM in series [1] and 501 nM in series [2]. For the same compound, at albumin, the fraction unbound was 0.05.
On to `CN(C)c1ccc(-c2cc3nccnc3c(OC[C@H]3CCCNC3)n2)cn1`, for which the half-maximal inhibitory concentration (IC50) in series [1] was 3.98 nM; in series [2], 126 nM; in series [3], 10000 nM. Moreover, the fraction unbound on albumin was 0.1.
In the case of `CN(C)c1ccc(-c2cc3nccnc3c(NC[C@H]3CCCNC3)n2)cn1`, the IC50 in series [1] was 15.8 nM; in series [2] it was 316 nM. Besides, on albumin, the fraction unbound was 0.08.
Take `Cc1ccc(-c2cc3nccnc3c(NCCCCN)n2)cc1`: the half-inhibitory concentration (IC50) in [3] was 15800 nM; in series [8], 1580 nM; in series [9], 2000 nM.
Consider `Cn1cc(-c2cc3nccnc3c(NC[C@@H]3CNCCC3(F)F)n2)cn1`, for which the results for the IC50 in series [1], in [2] and in [3] were 3.98 nM, 79.4 nM and 25100 nM, respectively.
For `CN(C)c1ccc(-c2cc3nccnc3c(NC[C@@H]3CNCCO3)n2)cn1`, the IC50 in [1] was 25.1 nM; in series [2], 316 nM; in series [3] it was above 50100 nM. In addition, the fraction unbound on albumin was 0.12.
Turning to `CN(C)c1ccc(-c2cc3nccnc3c(NC[C@@H]3CNCCN3C)n2)cn1`, the IC50 in series [1] was 50.1 nM; in [3], above 50100 nM. Further, at albumin, the fraction unbound was 0.09.
For `CN(C)c1ccc(-c2cc3nccnc3c(OC[C@@H]3CCCNC3)n2)cn1`, the IC50 in series [1] was 25.1 nM; in series [2], 501 nM; in [3] it was 12600 nM. Also, on albumin, the fraction unbound was 0.09.
On to `Cn1cc(-c2cc3nccnc3c(OCC3CNCCC3(F)F)n2)cn1` (racemic), for which, in series [5], the maximum concentration (Cmax) turned out to be 28 ng/mL. Further, in series [6], the AUC was determined as 99 ng·h/mL. Also, the pKa in [7] is 7.7.
Take `Cc1ccc(-c2cc3nccnc3c(NC[C@H]3CCCNC3)n2)o1`: the IC50 in [2] was 794 nM; in series [3], 20000 nM.
As to `Cc1ccc(-c2cc3ncccc3c(NC[C@H]3CCCNC3)n2)cc1`, the half-inhibitory concentration (IC50) was 20 nM in [1] and 794 nM in series [2]. Also, the fraction unbound on albumin was 0.05.
Consider `CN(C)c1ccc(-c2cc3nccnc3c(NC[C@H]3CNCCN3C)n2)cn1`, for which the IC50 was 79.4 nM in series [1], 251 nM in [2] and 15800 nM in series [3]. The fraction unbound on albumin was 0.07.
As to `O=C1CN(c2cc3nccnc3c(NC[C@H]3CCCNC3)n2)CCN1`, the concentration for half-maximal inhibition (IC50) is 6310 nM in series [1] and 7940 nM on Aurora kinase B. For the same compound, the fraction unbound at albumin is 0.41. In [4], this compound gave a chromatographic logD of 0.6.
With `CN(C)c1ccc(-c2cc3nccnc3c(NC[C@H]3CNCCO3)n2)cn1`, the values for the half-maximal inhibitory concentration (IC50) in series [1], in [2] and in series [3] were 200 nM, 1580 nM and above 50100 nM, respectively. Further, the fraction unbound on albumin was 0.11.
In the same order, the values of `Cn1cc(-c2cc3nccnc3c(OC[C@H]3CCCNC3)n2)cn1` are 39.8 nM, 200 nM, above 50100 nM and 0.22.
The matching figures for `Cc1ccc(-c2cc3nc[nH]c(=O)c3c(NC[C@H]3CCCNC3)n2)cc1`: 158 nM, 3980 nM, 7940 nM and 0.09.
For the compound `c1cnc2c(NC[C@H]3CCCNC3)nc(-c3cc[nH]n3)cc2n1`, the IC50 in [3] is above 50100 nM. The fraction unbound at albumin is 0.21.
On to `c1cnc2c(NC[C@H]3CCCNC3)nc(N3CCNCC3)cc2n1`, for which the figures for the concentration for half-maximal inhibition (IC50) in [1] and in [3] were above 25100 nM and above 50100 nM, respectively. Moreover, the fraction unbound on albumin is 0.3.
Take `CN(C)c1ccc(-c2cc3nccnc3c(NCC3CNCC(F)(F)C3)n2)cn1` (racemic): the concentration for half-maximal inhibition (IC50) is 100 nM in [1], 501 nM against Aurora kinase B, 1580 nM in [2] and above 50100 nM in series [3]. The fraction unbound at albumin is 0.07. Moreover, in series [4], the chromatographic logD amounted to 4.2.
Regarding `Cc1ccc(-c2cc3ncn(C)c(=O)c3c(NC[C@H]3CCCNC3)n2)cc1`, the figures for the IC50 in [1], in [2] and in series [3] were 79.4 nM, 1260 nM and 25100 nM, respectively. Moreover, the fraction unbound at albumin is 0.1.
In the case of `CN(C)c1ccc(-c2cc3nccnc3c(NC[C@@H]3CNCCC3(F)F)n2)cn1`, the IC50 in [1] was 2.51 nM; in series [2], 158 nM. For the same compound, the fraction unbound on albumin was 0.05.
In the case of `Cn1cc(-c2cc3nccnc3c(OCC3CNCC(F)(F)C3)n2)cn1` (racemic), the IC50 in series [1] was 158 nM; on Aurora kinase B it was 63.1 nM; in [2], 631 nM; in [3], above 50100 nM. In [5], this compound registered a maximum concentration (Cmax) of 148 ng/mL. The AUC in series [6] was 296 ng·h/mL. The compound further returned a pKa in series [7] of 7.
Regarding `CN(C)c1ccc(-c2cc3ncccc3c(NC[C@H]3CCCNC3)n2)cn1`, the IC50 in [1] was 7.94 nM; in series [2], 794 nM; in series [3], above 50100 nM. For the same compound, the fraction unbound on albumin is 0.06.
For the compound `CN(C)c1ccc(-c2cc3nccnc3c(NCCCCO)n2)cn1`, the IC50 in series [1] is 200 nM; in [2], above 10000 nM; in series [3] it was 31600 nM. In addition, the fraction unbound at albumin was 0.08.
In the same order, the values of `c1cnc2c(NC[C@H]3CCCNC3)nc(-c3cn[nH]c3)cc2n1` are 50.1 nM, 316 nM, above 50100 nM and 0.24.
For `Cc1ccc(-c2cc3nccnc3c(NC[C@H]3CCCNC3)n2)s1`, the IC50 is 20 nM in [1], 1000 nM in series [2] and 5010 nM in [3]. Also, the fraction unbound on albumin was 0.08.
`CN(C)c1ccc(-c2cc3nccnc3c(NCCCCN)n2)cn1` had a concentration for half-maximal inhibition (IC50) in [3] of 39800 nM. Also, the fraction unbound on albumin is 0.11.
In the case of `CN1CCNC[C@H]1COc1nc(-c2cnn(C)c2)cc2nccnc12`, the results for the IC50 in series [2] and in series [3] were 100 nM and above 50100 nM, respectively.

The record behind these values is ChEMBL document CHEMBL4431389, “Optimisation of a novel series of potent and orally bioavailable azanaphthyridine SYK inhibitors” (Bioorg Med Chem Lett, 2016).
